Assay results reported in US20230406873A1, “PROBES, SYSTEMS, AND METHODS FOR MAGNETIC RESONANCE PH SENSING” (The General Hospital Corporation, priority 2020, published 2023).
Read-outs that look alike come from different tables or passages of the source. Marks after values point to notes of the source that are not given here.

Legend:
[1] = pH-potentiometry of ligand (protonation constants); format: physicochemical; details: 0.1 M NaCl, 310 K; for log KLH: KLHn = [HnL]/[H][Hn-1L]
Method: (§1) pH-potentiometric measurements: pH-potentiometric measurements were performed using an Orion ROSS Ultra pH electrode and temperature-controlled reaction vessel held at 310 K. A standardized solution of 0.10 M NaOH was used as the titrant. The electrode was calibrated prior to each titration by titrating a standardized HCl(aq) solution at ionic strength 0.10 using NaCl as the inert electrolyte with the standardized NaOH titrant. A working slope and intercept were generated by plotting mV as a function of calculated pH, which enabled direct conversion of electrode readings to [H^+] during sample titrations. pH values recorded during the titrations refers to hydrogen ion concentration. All titration samples were prepared in solutions of 0.10 M NaCl in distilled, de-ionized water. Ligand solutions were prepared by dissolving a weighed quantity into the electrolyte and concentration was calculated from the effective weight of the ligand. Moles ligand present in titrand was also confirmed by measuring the mol added NaOH required to span each inflection point. Solutions of 1:1 ligand: Fe were prepared by adding an appropriate volume of standardized FeCl3 in 0.088 M HCl solution to a weighed quantity of ligand, the solutions were then adjusted with water and 1 M NaCl to ionic strength 0.10. The data was analyzed using the Hyperquad2013 software package.

[2] = pH-potentiometry of 1:1 ligand and Fe3+ solution (complex protonation constants, speciation); format: physicochemical; details: Fe^3+ complex, 0.1 M NaCl, 310 K; for log KML/ML(OH): 7.0 mM each Fe and ligand, [ML]/[ML(OH)][H], not an absolute protonation constant; for log KHML: KHML = [HML]/[H][ML]; for log KML: footnote d only: pH-potentiometry
Method: as §1

[3] = Estimation of log K (formation constant) from EDTA competition assay, HPLC; format: physicochemical; details: Fe^3+ complex; estimated from Kcomp using EDTA challenge; KML = [ML]/[M][L]
Text: The [Fe(PyCy2AI)]^+ formation constant was estimated from direct competition with EDTA at pH 4.4, I=0.1 M KNO3, and 310 K. Product distribution at equilibrium was estimated from an HPLC analysis of the reaction mixture (HPLC method A1). The equilibrium concentrations of [Fe(PyCy2AI)]^+ were quantified according to a linear calibration plot of HPLC peak area as a function of chelate concentration. An equilibrium constant, Keq, was estimated using Eq 4A,
The conditional (pH 4.4) formation constant, Kcond, was estimated from Keq and the previously (Kcond of Fe-EDTA measured under identical conditions using Eq 4B,
Under HPLC experimental conditions that cannot distinguish between chemical forms of the complex, the conditional stability constant can be estimated from the concentration coefficient of the ligand “L”, or PyCy2AI^2−, species (αL), which is known from the ligand pH-titration data. The formation constant was thus estimated using Eq 4C,
The HPLC assay conditions were chosen specifically to minimize contributions from ‘side products’ such as [Fe(HPyCy2AI)]^2+, [Fe(PyC2AI)(OH)], or [Fe(HEDTA)], which together we estimate to contribute <5% and <2% of total PyCy2AI and EDTA speciation.

[4] = Dimerization constant from concentration dependence on relaxivity at pH 9.0; format: physicochemical; details: Fe^3+ complex, pH 9.0, 310 K
Text: (§2) The dissociation constant for (ML)2O formation was estimated from the concentration dependence on r1 at pH 9.0, under these experimental conditions, complexes speciation is comprised near entirely by ML(OH) and the corresponding (ML)2O dimer and r1 can be expressed as Eq 7A, […]
r1=r1^monαmon+r1^dimαdim (Eq 7A) where r1^mon and r1^dim are the r1 corresponding to ML(OH) and (ML)2O and αmon and αdim are the fraction of total [Fe] comprised by each.
The concentration dependence on monomer vs. dimer speciation is governed by the equilibrium constant (Kd) in Eq 7B, Eq 7B can be rearranged to the corresponding quadratic equation, Eq 7C, and concentration of dimer solved by Eq 7D, Thus, the concentration dependence on ri was fit to a 3 parameter fit based on Eqs 7A-7D, yielding estimates of r1^mon, r1^dim, and Kd.

[5] = Dimerization constant from concentration dependence on extinction coefficient at 342 nm (UV-vis); format: physicochemical; details: Fe^3+ complex, pH 9.0, 310 K
Method: UV-vis spectra were recorded on a SpectraMax M2 spectrophotometer using quartz cuvettes with a 1 cm path length. Extinction coefficients recorded at pH 9 (ε, M^−1cm^−1) were estimated by dividing absorbance by sample Fe concentration.

[6] = Fe^3+ complexes of reference ligands; method and conditions not given; cited from earlier work
[7] = Relaxivity measurements (r1) of Fe-PyCy2AI species; format: physicochemical; details: Fe^3+ complex; estimated from pH dependence on r1
Method: Relaxivity measurements were performed on a Bruker mq60 Minispec, 1.41 T, and on an 11.7 T Varian NMR spectrometer at 37° C. Longitudinal (T1) relaxation times were measured via an inversion recovery experiment using 10 inversion times of duration ranging between 0.05 s T1 and 5 s T1. Transverse (T2) relaxation times were measured using a Carl-Purcell-Meiboom-Gill spin-echo experiment. Under experimental conditions where 1/T1,2 increased linearly with increasing [Fe], relaxivity (r2i=1,2) was determined from the slope of a plot of 1/Ti(i=1,2) vs. [Fe] for at least 4 concentrations. Under conditions where non-negligible dimerization occurs, plots of 1/T1,2 vs. [Fe] are non-linear and r1,2 were estimated by dividing the Fe induced increase in 1/T1,2 by [Fe]. […]
as §2
Magnetic resonance imaging was performed using a Bruker Biospec 4.7 T system. […] T1 values for each compound was determined using a 2D rapid acquisition refocused echo (RARE) sequence of flip angle (FA)=90°, echo time (TE)=20 ms, repetition time (TR) ranging from 146-7500 ms, acquisition matrix=256×128, field of view=64×32 mm, slice thickness 1 mm. […]

O=C(O)CN(Cc1c[nH]cn1)C1CCCC[C@@H]1N(CC(=O)O)Cc1ccccn1 (mixture of isomers) [PyCy2AI, (±)-trans-N-((1H-imidazol-4-yl)methyl)-N′-(picolyl)-N,N′-cyclohexane-1,2-diamine diacetate bis-trifluoroacetic acid]
log KLH2 [1]: 6.44 ± 0.03
log KLH3 [1]: 4.23 ± 0.033
log KLH4 [1]: 2.27 ± 0.05
log KLH [1]: 10.62 ± 0.04
log KML/ML(OH) [2]: 6.46 ± 0.03
log KHML ([2]; 7.0 mM ligand and Fe^3+): 2.91 ± 0.05
log KMLH-1/MLH-2 ([2]; 7.0 mM ligand and Fe^3+, [MLH-1]/[MLH-2][H]): 10.24 ± 0.05
log KML [3]: 23.9 ± 0.03^c
Dimerization Ka ([4]; 1.4 T): 2.3 ± 0.57 mM⁻¹
Dimerization Ka ([4]; 4.7 T): 5.1 ± 2.7 mM⁻¹
Dimerization Ka ([4]; 11.7 T): 7.4 ± 5.5 mM⁻¹
Dimerization Ka [5]: 6.2 ± 1.5 mM⁻¹

O=C(O)CN(CC(=O)O)C1CCCCC1N(CC(=O)O)CC(=O)O (stereo not shown) [CyDTA, 1,2-Cyclohexylenedinitrilotetraacetic acid]
log KLH2 [1]: 6.12
log KLH3 [1]: 3.49
log KLH4 [1]: 2.40
log KLH [1]: 12.3
log KML/ML(OH) [2]: 9.57
log KML ([2]; 7.0 mM ligand and Fe^3+): 29.1
Dimerization Ka [6]: 0.012 mM⁻¹

O=C(O)CN(CCN(CC(=O)O)CC(=O)O)CC(=O)O [EDTA, Ethylenediaminetetraacetic acid]
log KLH2 [1]: 6.13
log KLH3 [1]: 2.69
log KLH4 [1]: 2.00
log KLH [1]: 10.19
log KML/ML(OH) [2]: 7.37
log KHML ([2]; 7.0 mM ligand and Fe^3+): 1.3
log KML ([2]; 7.0 mM ligand and Fe^3+): 25.1
Dimerization Ka [6]: 0.44 mM⁻¹

O=C(O)CN(CCO)CCN(CC(=O)O)CC(=O)O [HEDTA, Hydroxyethylethylenediaminetriacetic acid]
Dimerization Ka [6]: 0.24 mM⁻¹

CC(CN(CC(=O)O)CC(=O)O)N(CC(=O)O)CC(=O)O (stereo not shown) [PDTA, N,N,N′,N′-1,2-propylenediaminetetracetic acid]
Dimerization Ka [6]: 0.19 mM⁻¹

O=C(O)CN(CC(=O)O)[C@H]1CCCC[C@@H]1N(CC(=O)O)Cc1ccccn1 [PyC3A]
log KML/ML(OH) [7]: 8.50^g
log KLH2 [1]: 6.39
log KLH3 [1]: 3.13
log KLH [1]: 10.16
log KML [3]: 26.0^c
